We go through 22 molecules from patent US20150299188A1, “HETEROCYCLIC COMPOUND” (priority 2012, published 2015).

The assay relates to FLAP (5-lipoxygenase activating protein). Nature of the assay: In vitro binding test: displacement of [3H]-7-chloro-3-(5-((3-fluoropyridin-2-yl)methoxy)-2-methylphenyl)-3,4-dihydroquinazolin-2(1H)-one from Sf9 microsome fractions. Details: species or system human and mouse. The settings on record: Sf9 microsome fractions expressing FLAP; 100% = radioligand binding with 10 μM sodium 3-(3-(tert-butylsulfanyl)-1-(4-chlorobenzyl)-5-isopropyl-1H-indol-2-yl)-2,2-dimethylpropanoate, 0% = DMSO; test compound concentration not given. The procedure:
As an assay buffer, 100 mM Tris-HCl, pH 7.5, 140 mM NaCl, 2 mM EDTA, 0.5 mM dithiothreitol, 5% glycerol, 0.05% Tween20 was used. Sf9 microsome fractions expressing human and mouse FLAPs were dispensed by 50 μL to a 96-well plate at 2 μg/mL. Furthermore, a test compound (25 μL) diluted 4-fold of the final concentration with the assay buffer was added and mixed therewith, and the mixture was incubated at room temperature for 10 min. Furthermore, 120 nM [^3H]-7-chloro-3-(5-((3-fluoropyridin-2-yl)methoxy)-2-methylphenyl)-3,4-dihydroquinazolin-2(1H)-one was added by 25 μL, and mixed therewith, and the mixture was incubated at room temperature for 60 min. Thereafter, the cells were transferred to a 96-well GF/B Unifilter plate with a FilterMate cell harvester, and washed 3 times with a wash buffer (100 mM Tris-HCl pH 7.5, 0.05% Tween20, 200 μL) cooled to 4° C. The GF/B Unifilter plate was dried at 37° C., Microscint 0 was added and measured by TopCount NXT (PerkinElmer). As for the inhibitory activity, the inhibitory rate was calculated wherein the [^3H]-7-chloro-3-(5-((3-fluoropyridin-2-yl)methoxy)-2-methylphenyl)-3,4-dihydroquinazolin-2(1H)-one binding amount in the presence of 10 μM sodium 3-(3-(tert-butylsulfanyl)-1-(4-chlorobenzyl)-5-isopropyl-1H-indol-2-yl)-2,2-dimethylpropanoate was 100%, and the [^3H]-7-chloro-3-(5-((3-fluoropyridin-2-yl)methoxy)-2-methylphenyl)-3,4-dihydroquinazolin-2(1H)-one binding amount in the presence of DMSO was 0%.
For `O=c1[nH]c2ccccc2c(=O)n1-c1cc(OCc2ncccc2F)ccc1F` [Example 345, 3-(2-fluoro-5-((3-fluoropyridin-2-yl)methoxy)phenyl)quinazoline-2,4(1H,3H)-dione], the “inhibitory rate (%)” value is listed as 114%.

As for `O=C1Nc2c(Cl)cnc(Cl)c2CN1c1cc2c(cc1Cl)CCC(c1ncccc1F)O2` (stereo not shown) [Example 53, 5,8-dichloro-3-(6-chloro-2-(3-fluoropyridin-2-yl)-3,4-dihydro-2H-chromen-7-yl)-3,4-dihydropyrido[4,3-d]pyrimidin-2(1H)-one], the “inhibitory rate (%)” value is reported as 103%.

Turning to `Cc1cc2c(cc1N1Cc3c(C4CC4)ccnc3NC1=O)OC(c1ncccc1F)CC2` (stereo not shown) [Example 50, 5-cyclopropyl-3-(2-(3-fluoropyridin-2-yl)-6-methyl-3,4-dihydro-2H-chromen-7-yl)-3,4-dihydropyrido[2,3-d]pyrimidin-2(1H)-one], the “inhibitory rate (%)” value worked out at 67%.

Consider `O=C1CNCCN1c1cc2c(c(C3CC3)n1)CN(c1cc3c(cc1Cl)CCC(c1ncccc1F)O3)C(=O)N2` (stereo not shown) [Example 125, 3-(6-chloro-2-(3-fluoropyridin-2-yl)-3,4-dihydro-2H-chromen-7-yl)-5-cyclopropyl-7-(2-oxopiperazin-1-yl)-3,4-dihydropyrido[4,3-d]pyrimidin-2(1H)-one], for which the “inhibitory rate (%)” value is reported as 95%.

Take `Cc1cc2c(cc1N1Cc3c(Cl)cnc(-c4c(C)noc4C)c3NC1=O)OC(c1ncccc1F)CC2` (stereo not shown) [Example 10, 5-chloro-8-(3,5-dimethyl-1,2-oxazol-4-yl)-3-(2-(3-fluoropyridin-2-yl)-6-methyl-3,4-dihydro-2H-chromen-7-yl)-3,4-dihydropyrido[3,4-d]pyrimidin-2(1H)-one]: the “inhibitory rate (%)” value is recorded as 94%.

Consider `COC(=O)c1ccc2c(c1)NC(=O)N(c1cc(OCc3csc(C)n3)ccc1C)C2` [Example 211, methyl 3-(2-methyl-5-((2-methyl-1,3-thiazol-4-yl)methoxy)phenyl)-2-oxo-1,2,3,4-tetrahydroquinazoline-7-carboxylate], for which the “inhibitory rate (%)” value came out at 86%.

Take `Cc1cc2c(c(C3CC3)n1)CN(c1cc3c(cc1C)CCC(c1ncccc1F)O3)C(=O)N2` (stereo not shown) [Example 83, 5-cyclopropyl-3-(2-(3-fluoropyridin-2-yl)-6-methyl-3,4-dihydro-2H-chromen-7-yl)-7-methyl-3,4-dihydropyrido[4,3-d]pyrimidin-2(1H)-one]: the “inhibitory rate (%)” value was 96%.

In the case of `Cc1cc2c(cc1N1Cc3c(ccnc3C3CC3)NC1=O)OC(c1ncccc1F)CC2` (stereo not shown) [Example 25, 5-cyclopropyl-3-(2-(3-fluoropyridin-2-yl)-6-methyl-3,4-dihydro-2H-chromen-7-yl)-3,4-dihydropyrido[4,3-d]pyrimidin-2(1H)-one], the “inhibitory rate (%)” value came to 99%.

As for `O=C1COCCN1c1cc2c(c(C3CC3)n1)CN(c1cc3c(cc1Cl)CCC(c1ncccc1F)O3)C(=O)N2` (stereo not shown) [Example 120, 3-(6-chloro-2-(3-fluoropyridin-2-yl)-3,4-dihydro-2H-chromen-7-yl)-5-cyclopropyl-7-(3-oxomorpholin-4-yl)-3,4-dihydropyrido[4,3-d]pyrimidin-2(1H)-one], the “inhibitory rate (%)” value worked out at 100%.

As for `O=C1Nc2cc(=O)[nH]c(C3CC3)c2CN1c1cc2c(cc1Cl)CCC(c1ncccc1F)O2` (stereo not shown) [Example 17, 3-(6-chloro-2-(3-fluoropyridin-2-yl)-3,4-dihydro-2H-chromen-7-yl)-5-cyclopropyl-4,6-dihydropyrido[4,3-d]pyrimidine-2,7(1H,3H)-dione], the “inhibitory rate (%)” value stood at 110%.

Take `O=C1Nc2c(Cl)cnc(C3CC3)c2CN1c1cc2c(cc1Cl)CCC(c1ncccc1F)O2` (stereo not shown) [Example 65, 8-chloro-3-(6-chloro-2-(3-fluoropyridin-2-yl)-3,4-dihydro-2H-chromen-7-yl)-5-cyclopropyl-3,4-dihydropyrido[4,3-d]pyrimidin-2(1H)-one]: the “inhibitory rate (%)” value was 105%.

On to `Cc1ccc(OCc2c(F)cccc2F)cc1N1Cc2ccc(C(=O)NS(C)(=O)=O)cc2NC1=O` [Example 209, 3-(5-((2,6-difluorobenzyl)oxy)-2-methylphenyl)-N-(methylsulfonyl)-2-oxo-1,2,3,4-tetrahydroquinazoline-7-carboxamide], for which the “inhibitory rate (%)” value came to 102%.

For `O=C1Nc2ccnc(Cl)c2CN1c1cc2c(cc1Cl)CC[C@H](c1ncccc1F)O2` [Example 3, 5-chloro-3-((2R)-6-chloro-2-(3-fluoropyridin-2-yl)-3,4-dihydro-2H-chromen-7-yl)-3,4-dihydropyrido[4,3-d]pyrimidin-2(1H)-one], the “inhibitory rate (%)” value was determined as 97%.

Consider `Cc1ccc(OCc2ncccc2F)cc1N1Cc2ccc(C(=O)Nc3ccccc3)cc2NC1=O` [Example 273, 3-(5-((3-fluoropyridin-2-yl)methoxy)-2-methylphenyl)-2-oxo-N-phenyl-1,2,3,4-tetrahydroquinazoline-7-carboxamide], for which the “inhibitory rate (%)” value worked out at 100%.

`Cc1ccc(OC(C)c2ncccc2F)cc1N1Cc2ccccc2NC1=O` (stereo not shown) [Example 215, 3-(5-(1-(3-fluoropyridin-2-yl)ethoxy)-2-methylphenyl)-3,4-dihydroquinazolin-2(1H)-one]: the “inhibitory rate (%)” value is 79%.

Take `COC(=O)/C=C/c1cc2c(c(C3CC3)n1)CN(c1cc3c(cc1C)CCC(c1ncccc1F)O3)C(=O)N2` (stereo not shown) [Example 89, methyl (2E)-3-(5-cyclopropyl-3-(2-(3-fluoropyridin-2-yl)-6-methyl-3,4-dihydro-2H-chromen-7-yl)-2-oxo-1,2,3,4-tetrahydropyrido[4,3-d]pyrimidin-7-yl)acrylate]: the “inhibitory rate (%)” value came to 98%.

For the molecule `Cc1cc2c(cc1N1Cc3c(cc(C4CC4)nc3-c3ccnn3C)NC1=O)OC(c1ncccc1F)CC2` (stereo not shown) [Example 104, 7-cyclopropyl-3-(2-(3-fluoropyridin-2-yl)-6-methyl-3,4-dihydro-2H-chromen-7-yl)-5-(1-methyl-1H-pyrazol-5-yl)-3,4-dihydropyrido[4,3-d]pyrimidin-2(1H)-one], the “inhibitory rate (%)” value came out at 91%.

Turning to `O=C1Nc2ccnc(C3CC3)c2CN1c1cc2c(cc1Cl)CCC(c1ncccc1F)O2` (stereo not shown) [Example 39, 3-(6-chloro-2-(3-fluoropyridin-2-yl)-3,4-dihydro-2H-chromen-7-yl)-5-cyclopropyl-3,4-dihydropyrido[4,3-d]pyrimidin-2(1H)-one], the “inhibitory rate (%)” value is 94%.

Turning to `Cc1cc2c(cc1N1Cc3c(Cl)cncc3NC1=O)OC(c1ncccc1F)CC2` (stereo not shown) [Example 22, 5-chloro-3-(2-(3-fluoropyridin-2-yl)-6-methyl-3,4-dihydro-2H-chromen-7-yl)-3,4-dihydropyrido[3,4-d]pyrimidin-2(1H)-one], the “inhibitory rate (%)” value is 109%.

Regarding `O=C1Nc2ccccc2CN1c1cc(OCc2ncccc2F)ccc1CN1CCCC1` [Example 306, 3-(5-((3-fluoropyridin-2-yl)methoxy)-2-(pyrrolidin-1-ylmethyl)phenyl)-3,4-dihydroquinazolin-2(1H)-one], the “inhibitory rate (%)” value worked out at 74%.

With `Cc1ccc(OCc2ncccc2F)cc1N1Cc2cc(Cl)ccc2NC1=O` [Example 243, 6-chloro-3-(5-((3-fluoropyridin-2-yl)methoxy)-2-methylphenyl)-3,4-dihydroquinazolin-2(1H)-one], the “inhibitory rate (%)” value worked out at 100%.

Regarding `Cc1ccc(OCc2ncccc2F)cc1N1Cc2c(Cl)cccc2N(C)C1=O` [Example 269, 5-chloro-3-(5-((3-fluoropyridin-2-yl)methoxy)-2-methylphenyl)-1-methyl-3,4-dihydroquinazolin-2(1H)-one], the “inhibitory rate (%)” value is given as 111%.
